# From publication PMC7311950, “Potent Tetrahydroquinolone Eliminates Apicomplexan Parasites” (Frontiers in Cellular and Infection Microbiology, 2020)
# Key:
# P. berghei sporozoites = test system: P. berghei sporozoites; set-up: method as in Doggett et al., 2012; Frueh et al., 2017; details: doses between 1 and 20 mg/kg, not the prodrug; ref Doggett et al., 2012; Frueh et al., 2017; cited from earlier work
# [1] = test system: T. gondii RH-YFP tachyzoites; assay: In vitro challenge assay, RH strain YFP tachyzoites in HFF; format: cell-based; details: Toxoplasma gondii; RH-YFP tachyzoites in HFF; Figure 1A; read-out: Tachy IC50
# Procedure: RH strain YFP Tachyzoites. Protocol was adapted from Fomovska et al. ([2012a],[b]) for HFF. HFF were cultured on a flat, clear-bottomed, black 96-well plate to 90–100% confluence. IMDM (1x, [+] glutamine, [+] 25 mM HEPES, [+] Phenol red, 10% FBS [Gibco, Denmark]) was removed and replaced with IMDM-C(1x, [+] glutamine, [+] 25 mM HEPES, [–] Phenol red, 10% FBS)[Gibco, Denmark]). RH-YFP, lysed from host cells by passing twice through a 27-gauge needle, were counted, then diluted to 32,000/mL in IMDM-C. HFF were infected with 3200 RH-YFP, then returned to 37°C, CO2 (5%) incubator for 1–2 h for infection. Various concentrations of the compounds in 20 μL IMDM-C were added to each well. There were triplicates for each condition. Controls were pyrimethamine/sulfadiazine (standard treatment), 0.1% DMSO only, HFF only, and untreated cultures of HFF infected with 2-fold dilutions of YFP expressing parasites (called “YFP gradient” to establish amount of color from known numbers of YFP expressing parasites). Cells were incubated at 37°C for 72 h. Plates were read using a fluorimeter (Synergy H4 Hybrid Reader, BioTek) to ascertain amount of relative fluorescence units (RFU) YFP, to measure parasite burden after treatment. Data were collected using Gen5 software with IC50 calculated by graphical analysis in Excel.
# An initial screening assay of 10 μM, 1 μM, 100 nM, and 10 nM of the compounds was performed. Compounds were not considered effective or pursued for further analysis if there was no inhibition of tachyzoites at 1 μM. If compounds were effective at 1 μM, another experiment was performed to assess effect at 1 μM, 500, 250, 125, 62.5, and 31.25 nM.
# [2] = target: T1, P. falciparum bc1 complex cytochrome c reductase (Pfbc1) (Plasmodium falciparum, UniProt Q02768); assay: Pfbc1 native assay (cytochrome c reduction by parasite extract); format: biochemical; details: atovaquone 1 μM positive control, X ± S.D., N = 4
# T1 construct: Parasite extract was then prepared by disruption with a sonicating probe; endogenous in cells; host or cells: P. falciparum strain 3D7 blood-stage culture, sonicated parasite extract
# T1 sequence (Q02768 1-376): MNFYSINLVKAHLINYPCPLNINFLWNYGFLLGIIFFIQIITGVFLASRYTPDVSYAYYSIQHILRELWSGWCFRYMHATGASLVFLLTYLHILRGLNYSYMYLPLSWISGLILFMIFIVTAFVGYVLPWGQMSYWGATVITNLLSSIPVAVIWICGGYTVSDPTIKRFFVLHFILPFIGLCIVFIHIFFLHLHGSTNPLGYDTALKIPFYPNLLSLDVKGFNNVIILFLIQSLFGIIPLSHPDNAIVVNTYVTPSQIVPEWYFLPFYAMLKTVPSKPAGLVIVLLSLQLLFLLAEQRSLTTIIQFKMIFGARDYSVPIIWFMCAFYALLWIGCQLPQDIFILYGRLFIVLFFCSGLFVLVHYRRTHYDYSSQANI
# Procedure: P. falciparum 3D7 strain were obtained from the Liverpool School of Tropical Medicine. Protease cocktail inhibitor was obtained from Roche. Bradford protein assay dye reagent was obtained from Bio-Rad. All other reagents were obtained from Sigma-Aldrich. Decylubiquinol was produced as per Fisher et al. ([2009]). In brief, 25 mg of decylubiquinone were dissolved in 400 μL of nitrogen-saturated hexane. An equal volume of aqueous 1 M sodium dithionite was added, and the mixture vortexed until colorless. The organic phase containing the decylubiquinol was collected, the solvent was evaporated under N2 and the decylubiquinol finally dissolved in 100 μL of 96% ethanol (acidified with 10 mM HCl). Concentrations of decylubiquinol was determined spectrophotometrically on a Cary 300 Bio UV/visible spectrophotometer (Varian, UK) from absolute spectra, using ε288−−320 = 8.1 mM^−1.cm^−1. Decylubiquinol was stored at −80°C and used within 2 weeks. […]
# The protocol for the preparation of parasite extract was adapted from Fisher et al. ([2009]). […] The protein concentration of the parasite extract was determined by Bradford protein assay (Bio-Rad).
# P. falciparum bc1 complex cytochrome c reductase (Pfbc1) activity was measured by monitoring cytochrome c reduction at 550 vs. 542 nm using a Cary 300 Bio UV-Visible Spectrophotometer (Varian, UK), using a protocol adapted from Fisher et al. ([2009]). […]
# [3] = Kinetic solubility in PBS pH 7.4 (Chem Partners); details: PBS, pH 7.4, aqueous buffer, kinetic from dmso stock
# Procedure: The effects of changing R1 as 7-Et, 7-Me, 6-CF3, or 6-Me on activity against RH strain tachyzoites, kinetic solubility, and metabolic stability were compared. Kinetic solubility and metabolic stability in human or murine liver microsomes were measured. The hERG (human Ether-à-go-go-Related) liability was also determined. The hERG gene (KCNH2) encodes a protein Kv11.1, the alpha subunit of a potassium ion channel. This channel conducts the rapid component of the delayed rectifier potassium current, IKr, which is critical for repolarization of cardiac action potentials. A reduction in hERG currents from adverse drug effects can lead to long QT interval syndromes. These syndromes are characterized by action potential prolongation, lengthening of the QT interval on surface EKG, and an increased risk for “torsade de pointes” arrhythmias and sudden death. The MDCK-MDR1 Permeability Assay was also performed. MDCK-MDR1 refers to the ability of a compound to permeate across membranes of MDCK-MDR1 (Madin Darby canine kidney [MDCK] cells with the MDR1 gene [ABCB1], the gene encoding for the efflux protein, P-glycoprotein (P-gp)) in vitro. Assessing transport in both directions (apical to basolateral and basolateral to apical) across the cell monolayers enables an efflux ratio to be determined. […] This provides a prediction of blood brain barrier (BBB) penetration potential/permeability and efflux ratio. Effect in CACO-2 (Colon Adenocarcinoma cells) as a permeability assay and on cytochrome P450 (CYP 450) were also determined. CYP enzymes catalyze oxidative biotransformation (phase 1 metabolism) of most drugs. CYP enzymes, bind to membranes in a cell (cyto) and contain a heme pigment (chrome and P) that absorbs light at a wavelength of 450 nm when exposed to carbon monoxide. Metabolism of a drug by CYP enzymes is a major source of variability in drug effect. These were measured by Chem Partners. The relative effect on HFF and parasite enzymes also were compared.
SMILES,efficacy in the in vivo malaria model (P. berghei sporozoites),IC50 [1] [µM],inhibition at 1 µM [2] [%],solubility kinetic [3] [µM]
COc1cc2[nH]c(C)c(-c3ccc(Oc4ccc(OC(F)(F)F)cc4)cc3)c(=O)c2cc1Cl [ELQ 300],not effective,–,–,–
O=c1c2c([nH]c(CO)c1-c1ccc(Oc3ccc(OC(F)(F)F)cc3)cc1)CCCC2 [JAG099],–,0.38,81.3 ± 6,4.05
